Active and inactive are the calls of the source. No cut-off for these calls is given here.
How the values were obtained:
[1] = Toxicity in BALB/c mouse assessed as increase in liver weight at 20 mg/kg, po administered for 5 days and measured after 1 day; type: organism-based; settings: in vivo, 120 h, time 5 day
[2] = Toxicity in BALB/c mouse assessed as changes in liver weight at 20 mg/kg, po administered for 5 days and measured after 14 days; type: organism-based; settings: in vivo, 120 h, time 5 day
[3] = Toxicity in BALB/c mouse assessed as increase in serum AST level at 20 mg/kg, po administered for 5 days and measured on day 1 and day 14 by ELISA method; type: organism-based; settings: in vivo, 120 h, time 5 day
[4] = Toxicity in BALB/c mouse assessed as increase in serum ALT level at 20 mg/kg, po administered for 5 days and measured on day 1 and day 14 by ELISA method; type: organism-based; settings: in vivo, 120 h, time 5 day
[5] = Toxicity in BALB/c mouse assessed as increase in creatinine level at 20 mg/kg, po administered for 5 days and measured after 1 day by colorimetric assay; type: organism-based; settings: in vivo, 120 h, time 5 day
[6] = Toxicity in BALB/c mouse assessed as increase in creatinine level at 20 mg/kg, po administered for 5 days and measured after 14 days by colorimetric assay; type: organism-based; settings: in vivo, 120 h, time 5 day
[7] = Toxicity in BALB/c mouse assessed as hydropic degeneration at 20 mg/kg, po administered for 5 days and measured after 1 day by hematoxylin-eosin staining based microscopic analysis; type: organism-based; settings: in vivo, 120 h, time 5 day
[8] = Toxicity in BALB/c mouse assessed as disseminated necrosis of hepatocytes at 20 mg/kg, po administered for 5 days and measured after 1 day by hematoxylin-eosin staining based microscopic analysis; type: organism-based; settings: in vivo, 120 h, time 5 day
[9] = Toxicity in BALB/c mouse assessed as changes in size of hepatocyte nuclei at 20 mg/kg, po administered for 5 days and measured after 1 day by hematoxylin-eosin staining based microscopic analysis; type: organism-based; settings: hepatocytes, 120 h, time 5 day
Toxoplasma gondii [10] = assay: Antiparasitic activity against Toxoplasma gondii RH infected in BALB/c mouse assessed as prolongation of animal survival at 20 mg/kg, po administered every 24 hrs for 5 days starting from 24 hrs post infection by Kaplan-Meier method; type: functional, organism-based; settings: time 5.0 day
Toxoplasma gondii [11] = assay: Antiparasitic activity against Toxoplasma gondii RH infected in BALB/c mouse assessed as reduction of daughter tachyzoites in blood at 20 mg/kg, po administered every 24 hrs for 5 days starting from 24 hrs post infection by real-time qPCR analysis; type: functional, organism-based; settings: time 5.0 day
Toxoplasma gondii [12] = assay: Antiparasitic activity against Toxoplasma gondii RH infected in BALB/c mouse assessed as decrease in IFNgamma level in serum at 20 mg/kg, po administered every 24 hrs for 5 days starting from 24 hrs post infection by ELISA method; type: functional, organism-based; settings: time 5.0 day
Toxoplasma gondii [13] = assay: Antiparasitic activity against Toxoplasma gondii RH infected in BALB/c mouse assessed as reduction of bradyzoite gene copies in brain at 20 mg/kg, po administered every 24 hrs for 5 days starting from 24 hrs post infection by real-time qPCR analysis; type: functional, organism-based; settings: time 5.0 day
Toxoplasma gondii [14] = assay: Antiparasitic activity against Toxoplasma gondii RH infected in BALB/c mouse assessed as reduction in number of bradyzoite gene copies in muscles at 20 mg/kg, po administered every 24 hrs for 5 days starting from 24 hrs post infection by real-time qPCR analysis; type: functional; settings: time 5 day
Toxoplasma gondii [15] = assay: Antiparasitic activity against Toxoplasma gondii DX infected in C3H/HeOuJ mouse assessed as prolongation of survival at 20 mg/kg, po administered every 24 hrs for 5 days starting from 24 hrs post infection by Kaplan-Meier method; type: functional, organism-based; settings: time 5.0 day

In the case of `CCc1nc(N)nc(N)c1-c1ccc(Cl)cc1` [PYRIMETHAMINE], the Activity [1] is reported as “Toxic”, the Activity [2] is reported as “Non-Toxic” and the Activity [3] is reported as “Toxic”. The Activity [4] was “Toxic”, the Activity [5] was “Toxic” and the Activity [6] was “Toxic”. The Activity [7] was “Toxic”, the Activity [8] was “Toxic” and the Activity [9] was “Toxic”. The Activity (Toxoplasma gondii [10]) was “Active”, the Activity (Toxoplasma gondii [11]) was “Active” and the Activity (Toxoplasma gondii [12]) was “Active”. The Activity (Toxoplasma gondii [13]) was “Active”, the Activity (Toxoplasma gondii [14]) was 14 and the Activity (Toxoplasma gondii [15]) was “Active”.
